Patent US4146628A, “Antiarrhythmic quinuclidine carboxylic acid xylidide and method of producing the same and similar compounds” (priority 1977, dated 1979)
“And” between values parts separate entries of the source, which are not always exact repeats. Identical values can stand only once. “Also recorded” adds a separate entry of the source. Counter-ions that a name gives are not always drawn.

Assays:
albino mice = assay: Symptoms after intraperitoneal administration to albino mice; format: in vivo; conditions: i.p.
From the text: This is confirmed by the tests of compound II, namely the hydrochloride of 2,6-xylidide of quinuclidine-2-carboxylic acid, which was produced both by the method of French Pat. No. 1,566,045, and by the method of the present invention. Administration of Compound II to albino mice by the intraperitoneal route induced the following symptoms: […]

[1] = Effect of Compound II in drug-induced (ouabain) arrhythmia; format: in vivo; conditions: 2.7 kg cat, nembutal; ouabain 70 μg per kg; i.v. 1.1 mg per kg
Procedure: Arrhythmia was induced in 2.7 kg cat, previously anesthetized with nembutal, by the slow infusion of ouabain over a period of one hour and to a total dose of 70 μg per kg.

[2] = Effect of Compound II in arrhythmia induced by coronary occlusion; format: in vivo; conditions: dog 15 kg, 24 hours after ligation; i.v. 3 mg per kg
From the text: Arrhythmia was induced in a dog of 15 kg body weight, by ligation of the left anteria descending coronary artery with a silk thread number 000.

[3] = Summary comparison with lidocaine: side effects; conditions: summary table
[4] = Ouabain-induced arrhythmia in the cat; format: in vivo; set-up: key to S.R. (sinus rhythm), Lidocaine-treated / S.R. (sinus rhythm), Compound I treated: +: denotes return to the rhythm
[5] = Summary comparison with lidocaine: ouabain-induced arrhythmia; format: in vivo; conditions: i.v.
[6] = Occlusion-induced arrhythmias in conscious dogs, parenteral administration; format: in vivo
Procedure: The effect of parenteral administration of Compound I on occlusion-induced arrhythmias in conscious dogs was determined. Occulsion was achieved by ligation of the left anteria descending coronary artery on 5 dogs.
Compound I was administered once within 24 hours and once within 48 hours after ligation.

[7] = cat 13, lidocaine HCl single i.v. injection 1.6 mg/kg
[8] = cat, lidocaine HCl single i.v. injection 4 mg/kg, 4 mg/kg

SMILES	cause of death (albino mice; 100 mg per kg)	lethal dose (albino mice; albino mice)	Effects (albino mice; dose range 20-30 mg per kg)	Effects (albino mice; dose range 40-60 mg per kg, hydrochloride)	effect in ouabain-induced arrhythmia [1]	neurotoxicity [2]	response in the electrocardiogram [2]	Side effects: Emesis [3]	Side effects: Hypotension [3]	B.P. (blood pressure), Lidocaine-treated [4, 7]	Duration (period of observation from onset of reversal of arrhythmia) [4, 7]	H.R. (heart rate), Lidocaine-treated [4, 7]	S.R. (sinus rhythm), Lidocaine-treated [4, 7]	B.P. (blood pressure), Lidocaine-treated [4, 8]	H.R. (heart rate), Lidocaine-treated [4, 8]	reappearance of arrhythmia after lidocaine ([4]; cats 12 and 13)	Onset of effect, ouabain-induced arrhythmia [5]	Onset of effect, occlusion-induced arrhythmia within 1st 24 hr. ([6]; i.v.)	Single therapeutic dose for suppression of Occlusion-induced arrhythmia within 1st 24 hr. after operation ([6]; i.v.)	effect of lidocaine on occlusion-induced arrhythmia ([6]; same animals, bolus i.v. 3 mg/kg)
Cc1cccc(C)c1NC(=O)C1CC2CCN1CC2 (centres unmarked) [Compound II, 2,6-xylidide of quinuclidine-2-carboxylic acid hydrochloride]	respiratory failure	100 mg. per kg	increased locomotion, excitation	pronounced neurotoxicity, ataxia; also recorded: partial paralysis	precipitated ventricular fibrillation and death	clear signs of neurotoxicity such as undue excitement and lateral movements of the head	only a fleeting response in the electrocardiogram with only a few signs of improvement													
CCN(CC)CC(=O)Nc1c(C)cccc1C [Lidocaine]								partial	about 20%	130/100	3 min	80 per min	+	60/40 and 120/80	150 per min and 110 per min	Arrhythmia reappeared	about 2 minutes	2 min	often ineffective	either completely ineffective or of ultra-short duration
